Results from ChEMBL document CHEMBL5154858, “Pocket-to-Lead: Structure-Based De Novo Design of Novel Non-peptidic HIV-1 Protease Inhibitors Using the Ligand Binding Pocket as a Template” (J Med Chem, 2022).

Key:
[1] = biological target: Human immunodeficiency virus type 1 protease (Human immunodeficiency virus 1, UniProt Q72874); experiment: Inhibition of wild type HIV1 protease expressed in Escherichia coli BL21 DE3 assessed as cleavage of fluorogenic substrate using EDANS-RESGIFLETSKR-DABCYL preincubated for 15 mins with compound followed by substrate addition and measured after 60 mins by microplate reader analysis
[2] = test system: Human immunodeficiency virus 1; experiment: Antiviral activity against HIV-1 IIIB infected in human MT4 cells assessed as inhibition of virus-induced cell death preincubated for 1 hr with compound followed by viral infection measured after 5 days by MTT assay; format: functional, organism-based; settings: Human immunodeficiency virus 1, IIIB

| SMILES | IC50 [1] [µM] | EC50 [2] [µM] |
| --- | --- | --- |
| CCC[C@]1(c2ccc(S(C)(=O)=O)cc2)C(=O)N(Cc2ccc(OC)cc2)C[C@@H]1O (mixture of isomers) | 32 |  |
| COc1ccc(CN2C[C@@H](O)[C@@](Cc3ccc(F)cc3)(c3ccc(S(C)(=O)=O)cc3)C2=O)cc1 (mixture of isomers) | 77 |  |
| COc1ccc(CN2C[C@H](O)[C@@](CCC(C)C)(c3ccc(S(C)(=O)=O)cc3)C2=O)cc1 (mixture of isomers) | 2 | > 20 |
| COc1ccc(CN2C[C@H](O)[C@@](CC(C)C)(c3ccc(S(C)(=O)=O)cc3)C2=O)cc1 (mixture of isomers) | 34 |  |
| COc1ccc(CN2C[C@H](O)[C@@](CCC(C)C)(c3ccc(S(C)(=O)=O)cc3OC(C)C)C2=O)cc1 (mixture of isomers) | 0.082 | 11 |
| COc1ccc(CN2C[C@H](O)[C@@](CCC(C)C)(c3ccc(S(C)(=O)=O)cc3O[C@@H](C)CO)C2=O)cc1 (mixture of isomers) | 0.0071 | 0.86 |
| COc1ccc(CN2C[C@H](O)[C@@](Cc3ccc(F)cc3)(c3ccc(S(C)(=O)=O)cc3)C2=O)cc1 (racemic) | 54 |  |
